According to patent US20250223303A1, “TRICYCLIC BORONIC ACID DERIVATIVE, AND PREPARATION METHOD THEREFOR AND APPLICATION THEREOF” (priority 2021, published 2025):

Tests used:
[1] = system: Klebsiella pneumoniae ARLG 1196; test: MIC test of compounds in combination with antibiotics, Klebsiella pneumoniae ARLG 1196; details: for MIC of biapenem in combination with compound, Klebsiella pneumoniae ARLG-1196 CTM-1 group, SHV, NDM, TEM: Biapenem + compound (8 μg/mL); for MIC of meropenem in combination with compound, Klebsiella pneumoniae ARLG-1196 CTM-1 group, SHV, NDM, TEM: Meropenem + compound (8 μg/mL)
[2] = system: Acinetobacter baumannii ARLG-1809 OXA-23; test: MIC test of compounds in combination with antibiotics, Acinetobacter baumannii ARLG-1809; details: for MIC of biapenem in combination with compound, Acinetobacter baumannii ARLG-1809 OXA-23: Biapenem + compound (8 μg/mL); for MIC of meropenem in combination with compound, Acinetobacter baumannii ARLG-1809 OXA-23: Meropenem + compound (8 μg/mL)
[3] = system: Klebsiella pneumoniae ATCC BAA-2470; test: MIC test of compounds in combination with antibiotics, Klebsiella pneumoniae ATCC BAA-2470; details: for MIC of biapenem in combination with compound, Klebsiella pneumoniae ATCC BAA-2470 NDM-1: Biapenem + compound (8 μg/mL); for MIC of meropenem in combination with compound, Klebsiella pneumoniae ATCC BAA-2470 NDM-1: Meropenem + compound (8 μg/mL)
[4] = system: Acinetobacter baumannii ARLG-1853 OXA-23; test: MIC test of compounds in combination with antibiotics, Acinetobacter baumannii ARLG-1853; details: for MIC of biapenem in combination with compound, Acinetobacter baumannii ARLG-1853 OXA-23: Biapenem + compound (8 μg/mL); for MIC of meropenem in combination with compound, Acinetobacter baumannii ARLG-1853 OXA-23: Meropenem + compound (8 μg/mL)
[5] = system: Acinetobacter baumannii ARLG-1852 OXA-23; test: MIC test of compounds in combination with antibiotics, Acinetobacter baumannii ARLG-1852; details: for MIC of biapenem in combination with compound, Acinetobacter baumannii ARLG-1852 OXA-23: Biapenem + compound (8 μg/mL); for MIC of meropenem in combination with compound, Acinetobacter baumannii ARLG-1852 OXA-23: Meropenem + compound (8 μg/mL)
[6] = system: Acinetobacter baumannii WX-AB005; test: MIC test of compounds in combination with antibiotics, Acinetobacter baumannii WX-AB005; details: for MIC of biapenem in combination with compound, Acinetobacter baumannii WX-AB005: Biapenem + compound (8 μg/mL); for MIC of meropenem in combination with compound, Acinetobacter baumannii WX-AB005: Meropenem + compound (8 μg/mL)
[7] = system: Escherichia coli ARLG 2829; test: MIC test of compounds in combination with antibiotics, Escherichia coli ARLG 2829; details: for MIC of biapenem in combination with compound, Escherichia coli ARLG-2829 NDM-5, OXA-1: Biapenem + compound (8 μg/mL); for MIC of meropenem in combination with compound, Escherichia coli ARLG-2829 NDM-5, OXA-1: Meropenem + compound (8 μg/mL)
[8] = system: Acinetobacter baumannii ARLG-1791 OXA-23; test: MIC test of compounds in combination with antibiotics, Acinetobacter baumannii ARLG-1791; details: for MIC of biapenem in combination with compound, Acinetobacter baumannii ARLG-1791 OXA-23: Biapenem + compound (8 μg/mL); for MIC of meropenem in combination with compound, Acinetobacter baumannii ARLG-1791 OXA-23: Meropenem + compound (8 μg/mL)
[9] = system: Acinetobacter baumannii WX-AB013; test: MIC test of compounds in combination with antibiotics, Acinetobacter baumannii WX-AB013; details: for MIC of biapenem in combination with compound, Acinetobacter baumannii WX-AB013: Biapenem + compound (8 μg/mL); for MIC of meropenem in combination with compound, Acinetobacter baumannii WX-AB013: Meropenem + compound (8 μg/mL)
[10] = system: Klebsiella pneumoniae ATCC BAA-1705; test: MIC test of compounds in combination with antibiotics, Klebsiella pneumoniae ATCC BAA-1705; details: for MIC of biapenem in combination with compound, Klebsiella pneumoniae ATCC BAA-1705 KPC-2: Biapenem + compound (8 μg/mL); for MIC of meropenem in combination with compound, Klebsiella pneumoniae ATCC BAA-1705 KPC-2: Meropenem + compound (8 μg/mL)

| MIC of biapenem in combination with compound, Klebsiella pneumoniae ARLG-1196 CTM-1 group, SHV, NDM, TEM [1] [µg/mL] | MIC of meropenem in combination with compound, Klebsiella pneumoniae ARLG-1196 CTM-1 group, SHV, NDM, TEM [1] [µg/mL] | MIC of biapenem in combination with compound, Acinetobacter baumannii ARLG-1809 OXA-23 [2] [µg/mL] | MIC of meropenem in combination with compound, Acinetobacter baumannii ARLG-1809 OXA-23 [2] [µg/mL] | MIC of biapenem in combination with compound, Klebsiella pneumoniae ATCC BAA-2470 NDM-1 [3] [µg/mL] | MIC of meropenem in combination with compound, Klebsiella pneumoniae ATCC BAA-2470 NDM-1 [3] [µg/mL] | MIC of biapenem in combination with compound, Acinetobacter baumannii ARLG-1853 OXA-23 [4] [µg/mL] | MIC of meropenem in combination with compound, Acinetobacter baumannii ARLG-1853 OXA-23 [4] [µg/mL] | MIC of biapenem in combination with compound, Acinetobacter baumannii ARLG-1852 OXA-23 [5] [µg/mL] | MIC of meropenem in combination with compound, Acinetobacter baumannii ARLG-1852 OXA-23 [5] [µg/mL] | MIC of biapenem in combination with compound, Acinetobacter baumannii WX-AB005 [6] [µg/mL] | MIC of meropenem in combination with compound, Acinetobacter baumannii WX-AB005 [6] [µg/mL] | MIC of biapenem in combination with compound, Escherichia coli ARLG-2829 NDM-5, OXA-1 [7] [µg/mL] | MIC of meropenem in combination with compound, Escherichia coli ARLG-2829 NDM-5, OXA-1 [7] [µg/mL] | MIC of biapenem in combination with compound, Acinetobacter baumannii ARLG-1791 OXA-23 [8] [µg/mL] | MIC of meropenem in combination with compound, Acinetobacter baumannii ARLG-1791 OXA-23 [8] [µg/mL] | MIC of biapenem in combination with compound, Acinetobacter baumannii WX-AB013 [9] [µg/mL] | MIC of meropenem in combination with compound, Acinetobacter baumannii WX-AB013 [9] [µg/mL] | MIC of biapenem in combination with compound, Klebsiella pneumoniae ATCC BAA-1705 KPC-2 [10] [µg/mL] | MIC of meropenem in combination with compound, Klebsiella pneumoniae ATCC BAA-1705 KPC-2 [10] [µg/mL] | Compound |
| --- | --- | --- | --- | --- | --- | --- | --- | --- | --- | --- | --- | --- | --- | --- | --- | --- | --- | --- | --- | --- |
| 0.25 | 2 | 1 | 2 | ≤0.125 | ≤0.125 | 0.5 | 2 | 0.25 | 1 | 2 | 4 | ≤0.125 | 1 | 0.5 | 4 | 0.5 | 2 | ≤0.125 | ≤0.125 | NC1COCC1Sc1ccc2c(c1C(=O)O)OB(O)C1CC21 (single isomer, unassigned) [Compound 10_P1] |
| 0.25 | 1 | 0.25 | 2 | 0.5 | 0.25 | ≤0.125 | 1 | ≤0.125 | 1 | 1 | 4 | ≤0.125 | 0.25 | 0.25 | 4 | 0.5 | 1 | ≤0.125 | ≤0.125 | NC1COCC1Sc1ccc2c(c1C(=O)O)OB(O)C1CC21 (single isomer, unassigned) [Compound 10_P2] |
